The values that follow come from US11612627B2, “Method for preventing or treating thrombosis” (ANDONG NATIONAL UNIVERSITY INDUSTRY-ACADEMIC COOPERATION …, priority 2020, dated 2023).

“And” between values parts separate entries of the source, which are not always exact repeats. Equal entries are not always repeated.

One data set relates to coagulation factors. The data set is described as follows: aPTT (activated partial thromboplastin time). The conditions noted are these: clot time sample/clot time DMSO, 3-carene section Table 3. The class given is biochemical. Here is the method: Subsequently, 50 μl of CaCl2 (35 mM) was added. […] Instead of samples, DMSO served as a solvent control. […] The aPPT was expressed as a mean value of the measurements of three independent experiments.
Instead of samples, DMSO served as a solvent control. […] The aPPT was expressed as a mean value of the measurements of three independent experiments.

A further data set has as its system prothrombin. Kind of data set: Prothrombin time (plasma clotting). In kind it is biochemical. As to conditions: clot time sample/clot time DMSO, 3-carene section Table 3. The procedure: In an Amelung coagulometer KC-1A tube (Japan), 70 μl of standard plasma (MD Pacific Co., China) was heated, together with 10 μl of each of samples having various concentrations, at 37° C. for 3 min before adding 130 μl of PT reagent thereto. […] This experiment was repeated three times independently. The prothrombin time was expressed as a mean value of the three measurements.

A further data set relates to human erythrocytes. The data set is described as follows: Human erythrocyte lysis (hemolysis) activity. The class given is cell-based. The procedure:
In this regard, erythrocyte lysis activity was assayed as reported previously (Sohn, Ho-Yong, 2014. Korean J. Microbiol. Biotechnol. 42: 285-292). Briefly, 100 μl of human erythrocytes, after being washed three times with PBS, was added to each well of 96-well microplates, mixed with 100 μl of each of samples having various concentrations, and incubated at 37° C. for 30 min. Subsequently, the reaction mixture was centrifuged for 10 min (1,500 rpm). After 100 μl of the supernatant was transferred to new microtiter plates, absorbance was read at 414 nm to analyze hemoglobin release according to hemolysis. DMSO (2%) was used as a solvent control for the samples while Triton X-100 (1 mg/ml) served as a control for hemolysis. Hemolysis activity was calculated according to the following equation: (%)Hemolysis=[(Abs. S−Abs. C)/(Abs. T−Abs. C)]×100
Abs. S: Absorbance of sample
Abs. C: Absorbance of DMSO
Abs. T: Absorbance of Triton X-100 added control

The next data set deals with Human enriched platelets. The data set is described as follows: Platelet aggregation inhibition activity (collagen, whole-blood aggregometer). In kind it is cell-based. The conditions noted are these: for Platelet Aggregation Activity: AUC sample/AUC DMSO x 100; for Platelet Aggregation Curve: Amplitude / Platelet Aggregation Curve: Area under curve / Platelet Aggregation Curve: Lag time / Platelet Aggregation Curve: Slope: collagen-induced. The procedure:
Platelet Aggregation Inhibition Activity Human enriched platelets were used. They were washed once with a washing buffer (138 mM NaCl, 2.7 mM KCl, 12 mM NaHCO3, 0.36 mM NaH2PO4, 5.5 mM Glucose, 1 mM EDTA, pH 6.5) and then resuspended in a suspending buffer (138 mM NaCl, 2.7 mM KCl, 12 mM NaHCO3, 0.36 mM NaH2PO4, 5.5 mM Glucose, 0.49 mM MgCl2, 0.25% gelatin, pH 7.4). Centrifugation at 3,000 rpm for 10 min was followed by resuspension in a suspending buffer, with the platelets adjusted to the density of 4×10^9/ml. Subsequently, 1 ml of the suspension was incubated with 2.5 μl of collagen for 5 min, after which platelet aggregation was measured at 37° C. using a whole-blood aggregometer (Chrono-log, USA).

For data set [1] the following is noted: miscible with oil; cited from earlier work.

For the compound `O=C(O)c1ccc(O)cc1` [4-Hydroxybenzoic acid, 4-hydroxybenzoic acid], in the data set on coagulation factors (0.5 mg/ml), the “Blood coagulation inhibition activity: aPTT” value turned out to be 0.94 ± 0.15. Further, the “Blood coagulation inhibition activity: Prothrombin Time” value with prothrombin (0.5 mg/ml) was 0.99 ± 0.00.
Turning to `C[C@@H]1[C@H](O)[C@@H](C)/C=C/C=C/C=C/C=C/C=C/C=C/C=C/[C@H](O[C@@H]2O[C@H](C)[C@@H](O)[C@H](N)[C@@H]2O)C[C@@H]2O[C@](O)(C[C@@H](O)C[C@@H](O)[C@H](O)CC[C@@H](O)C[C@@H](O)CC(=O)O[C@H]1C)C[C@H](O)[C@H]2C(=O)O` [Amphotericin B, amphotericin B], the Human hemolytic activity with human erythrocytes (0.003 mg/ml, flower section Table 3) stood at 26.5 ± 9.6%; with human erythrocytes (0.006 mg/ml, flower section Table 3) it was 38.0 ± 0.7%; in the data set on human erythrocytes (0.00625 mg/ml, flower section Table 6), 38.0 ± 0.7%; in the data set with human erythrocytes (0.0125 mg/ml, flower section Table 6), 48.2 ± 5.9%; in the data set on human erythrocytes (0.0125 mg/ml, leaf section Table 4), 48.2 ± 5.9%; in the data set with human erythrocytes (0.025 mg/ml, flower section Table 3) it was 59.5 ± 6.3%. Also, the Human hemolytic activity in the data set with human erythrocytes (0.025 mg/ml, flower section Table 3, listed as amphotericin B) is at least 50%; with human erythrocytes (0.025 mg/ml, flower section Table 6), 59.5 ± 6.3%; in the data set with human erythrocytes (0.025 mg/ml, leaf section Table 4), 59.5 ± 6.3%; in the data set with human erythrocytes (0.025 mg/ml, leaf section Table 4, listed as amphotericin B) it was at least 50%; with human erythrocytes (0.05 mg/ml, flower section Table 3), 80.7 ± 7.3%; in the data set on human erythrocytes (0.05 mg/ml, flower section Table 6), 80.7 ± 7.3%. Besides, the “Human hemolytic activity” value in the data set on human erythrocytes (0.05 mg/ml, leaf section Table 4) stood at 80.7 ± 7.3%; in the data set on human erythrocytes (0.1 mg/ml, flower section Table 3), 95.8 ± 0.3%; in the data set with human erythrocytes (0.1 mg/ml, flower section Table 6), 95.8 ± 0.3%; in the data set on human erythrocytes (0.1 mg/ml, leaf section Table 4) it was 95.8 ± 0.3%.
For `CC(=O)Oc1ccccc1C(=O)O` [Aspirin, aspirin], in the data set on Human enriched platelets (0.125 mg/ml), the “Platelet Aggregation Activity” value was 82.2%, the “Platelet Aggregation Curve: Amplitude” value is given as 14 ohm, the “Platelet Aggregation Curve: Area under curve” value was 78.0 and the “Platelet Aggregation Curve: Lag time” value is 35 s. Moreover, the “Platelet Aggregation Curve: Slope” value in the data set with Human enriched platelets (0.125 mg/ml) was determined as 2. In the data set with Human enriched platelets (0.25 mg/ml), the “Platelet Aggregation Activity” value is on record as 49.7%, the “Platelet Aggregation Curve: Amplitude” value came out at 8 ohm, the “Platelet Aggregation Curve: Area under curve” value is 47.2 and the “Platelet Aggregation Curve: Lag time” value is 128 s. Also, the “Platelet Aggregation Curve: Slope” value with Human enriched platelets (0.25 mg/ml) is listed as 1.
As to `CC1=CCC2C(C1)C2(C)C` (stereo not shown) [Extract 3-Carene, 3-carene], the “Blood coagulation inhibition activity: aPTT” value in the data set with coagulation factors (0.5 mg/ml) turned out to be 1.23 ± 0.05; with coagulation factors (0.75 mg/ml), 1.61 ± 0.03; with coagulation factors (1.0 mg/ml), 2.26 ± 0.08; in the data set on coagulation factors (1.0 mg/ml, listed as 3-carene), 2.26. The “Blood coagulation inhibition activity: Prothrombin Time” value is 1.05 ± 0.02 in the data set on prothrombin (0.5 mg/ml); 1.29 ± 0.00 in the data set on prothrombin (0.75 mg/ml); 1.43 ± 0.09 in the data set on prothrombin (1.0 mg/ml); 1.43 in the data set with prothrombin (1.0 mg/ml, listed as 3-carene). Further, the Solubility in water result in data set [1] is reported as “not soluble in water”.
Take Triton X-100: the “Human hemolytic activity” value in the data set on human erythrocytes (1.0 mg/ml, 37° C. 30 min, leaf section Table 4) is 100% and 100.0 ± 0.1%; in the data set with human erythrocytes (1.0 mg/ml, flower section Table 3), 100% and 100.6 ± 0.8%; with human erythrocytes (1.0 mg/ml, flower section Table 6) it was 100.6 ± 0.8%.
